Measured values published in ChEMBL document CHEMBL2434921, “New synthetic aliphatic sulfonamido-quaternary ammonium salts as anticancer chemotherapeutic agents” (2013).
The source made the active and inactive calls. The calls are words filed in the database; no cut-off is given here.

Legend:
PC-3 [1] = test: Growth inhibition of human PC3 cells at 0.1 uM after 48 hrs by SRB assay; values are per cent of control; details: PC-3, 48 h
PC-3 [2] = test: Growth inhibition of human PC3 cells at 3 uM after 48 hrs by SRB assay; values are per cent of control; details: PC-3, 48 h
ACHN [3] = test: Growth inhibition of human ACHN cells at 1 uM after 48 hrs by SRB assay; values are per cent of control
MDA-MB-231 [4] = test: Growth of human MDA-MB-231 cells at 0.1 uM after 48 hrs by SRB assay; details: MDA-MB-231, 48 h
MDA-MB-231 [5] = test: Growth of human MDA-MB-231 cells at 1 uM after 48 hrs by SRB assay; details: MDA-MB-231, 48 h
PC-3 [6] = test: Growth inhibition of human PC3 cells at 1 uM after 48 hrs by SRB assay; values are per cent of control; details: PC-3, 48 h
MDA-MB-231 [7] = test: Growth inhibition of human MDA-MB-231 cells at 0.3 uM after 48 hrs by SRB assay; values are per cent of control; details: MDA-MB-231, 48 h
NCI-H23 [8] = test: Growth inhibition of human NCI-H23 cells at 1 uM after 48 hrs by SRB assay; values are per cent of control; details: NCI-H23, 48 h
HCT-15 [9] = test: Growth of human HCT15 cells at 3 uM after 48 hrs by SRB assay; details: HCT-15, 48 h
ACHN [10] = test: Growth inhibition of human ACHN cells after 48 hrs by SRB assay; format: functional
NUGC-3 [11] = test: Growth of human NUGC3 cells at 0.1 uM after 48 hrs by SRB assay; details: NUGC-3, 48 h
NCI-H23 [12] = test: Growth inhibition of human NCI-H23 cells after 48 hrs by SRB assay; format: functional; details: NCI-H23, 48 h
HCT-15 [13] = test: Growth inhibition of human HCT15 cells at 10 uM after 48 hrs by SRB assay; values are per cent of control; details: HCT-15, 48 h
PC-3 [14] = test: Growth inhibition of human PC3 cells after 48 hrs by SRB assay; format: functional; details: PC-3, 48 h
NCI-H23 [15] = test: Growth of human NCI-H23 cells at 10 uM after 48 hrs by SRB assay; details: NCI-H23, 48 h
[16] = target: Rho-related GTP-binding protein RhoB (Homo sapiens) (UniProt P62745); test: Transactivation of RhoB (unknown origin) transfected in human HeLa cells at 5 uM measured over 10 secs by dual luciferase reporter gene assay; format: cell-based
Chain of Rho-related GTP-binding protein RhoB (Homo sapiens) (P62745 whole entry): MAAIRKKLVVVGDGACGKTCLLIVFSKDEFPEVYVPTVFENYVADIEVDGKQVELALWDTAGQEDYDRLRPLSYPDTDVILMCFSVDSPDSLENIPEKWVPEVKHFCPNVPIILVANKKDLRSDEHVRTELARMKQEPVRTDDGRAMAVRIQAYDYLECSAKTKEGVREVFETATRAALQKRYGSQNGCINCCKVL

NCI-H23 [17] = test: Growth inhibition of human NCI-H23 cells at 0.1 uM after 48 hrs by SRB assay; values are per cent of control; details: NCI-H23, 48 h
MDA-MB-231 [18] = test: Growth of human MDA-MB-231 cells at 10 uM after 48 hrs by SRB assay; details: MDA-MB-231, 48 h
NCI-H23 [19] = test: Growth inhibition of human NCI-H23 cells at 3 uM after 48 hrs by SRB assay; values are per cent of control; details: NCI-H23, 48 h
HCT-15 [20] = test: Growth of human HCT15 cells at 0.3 uM after 48 hrs by SRB assay; details: HCT-15, 48 h
NUGC-3 [21] = test: Growth of human NUGC3 cells at 1 uM after 48 hrs by SRB assay; details: NUGC-3, 48 h
ACHN [22] = test: Growth of human ACHN cells at 10 uM after 48 hrs by SRB assay
PC-3 [23] = test: Growth of human PC3 cells at 10 uM after 48 hrs by SRB assay; details: PC-3, 48 h
NUGC-3 [24] = test: Growth inhibition of human NUGC3 cells at 10 uM after 48 hrs by SRB assay; values are per cent of control; details: NUGC-3, 48 h
HCT-15 [25] = test: Growth inhibition of human HCT15 cells after 48 hrs by SRB assay; format: functional
MDA-MB-231 [26] = test: Growth of human MDA-MB-231 cells at 3 uM after 48 hrs by SRB assay; values are per cent of control; details: MDA-MB-231, 48 h
NUGC-3 [27] = test: Growth inhibition of human NUGC3 cells after 48 hrs by SRB assay; format: functional; details: NUGC-3, 48 h
MDA-MB-231 [28] = test: Growth inhibition of human MDA-MB-231 cells after 48 hrs by SRB assay; format: functional; details: MDA-MB-231, 48 h
NUGC-3 [29] = test: Growth of human NUGC3 cells at 0.3 uM after 48 hrs by SRB assay; details: NUGC-3, 48 h
HCT-15 [30] = test: Growth inhibition of human HCT15 cells at 1 uM after 48 hrs by SRB assay; values are per cent of control; details: HCT-15, 48 h
PC-3 [31] = test: Growth inhibition of human PC3 cells at 0.3 uM after 48 hrs by SRB assay; values are per cent of control; details: PC-3, 48 h
ACHN [32] = test: Growth inhibition of human ACHN cells at 3 uM after 48 hrs by SRB assay; values are per cent of control
NUGC-3 [33] = test: Growth inhibition of human NUGC3 cells at 3 uM after 48 hrs by SRB assay; values are per cent of control; details: NUGC-3, 48 h
HCT-15 [34] = test: Growth inhibition of human HCT15 cells at 0.1 uM after 48 hrs by SRB assay; values are per cent of control; details: HCT-15, 48 h
ACHN [35] = test: Growth of human ACHN cells at 0.3 uM after 48 hrs by SRB assay
ACHN [36] = test: Growth of human ACHN cells at 0.1 uM after 48 hrs by SRB assay
NCI-H23 [37] = test: Growth of human NCI-H23 cells at 0.3 uM after 48 hrs by SRB assay; details: NCI-H23, 48 h

Row | SMILES | growth, % of control at 0.1 µM (PC-3 [1]) [%] | growth, % of control at 3 µM (PC-3 [2]) [%] | growth, % of control at 1 µM (ACHN [3]) [%] | growth, % of control at 0.1 µM (MDA-MB-231 [4]) [%] | growth, % of control at 1 µM (MDA-MB-231 [5]) [%] | growth, % of control at 1 µM (PC-3 [6]) [%] | growth, % of control at 0.3 µM (MDA-MB-231 [7]) [%] | growth, % of control at 1 µM (NCI-H23 [8]) [%] | growth, % of control at 3 µM (HCT-15 [9]) [%] | GI50 (ACHN [10]) [nM] | growth, % of control at 0.1 µM (NUGC-3 [11]) [%] | GI50 (NCI-H23 [12]) [nM] | growth, % of control at 10 µM (HCT-15 [13]) [%] | GI50 (PC-3 [14]) [nM] | growth, % of control at 10 µM (NCI-H23 [15]) [%] | Activity [16] | growth, % of control at 0.1 µM (NCI-H23 [17]) [%] | growth, % of control at 10 µM (MDA-MB-231 [18]) [%] | growth, % of control at 3 µM (NCI-H23 [19]) [%] | growth, % of control at 0.3 µM (HCT-15 [20]) [%] | also measured
1 | C=CC[N+](C)(C)CCN(C)S(=O)(=O)CCCCCCCCCCCCCC | 86.7 | 8.4 | 80.3 | 88 | 99.4 | 48.6 | 107 | 70.8 | 49.9 | 1390 | 91.6 | 730 | 22.6 | 460 | -9.2 | Active | 78.2 | 20.2 | 24 | 91.6 | growth, % of control at 1 µM (NUGC-3 [21]): 73%; growth, % of control at 10 µM (ACHN [22]): -36.7%; growth, % of control at 10 µM (PC-3 [23]): -22.9%; growth, % of control at 10 µM (NUGC-3 [24]): -8.4%; GI50 (HCT-15 [25]; HCT-15, 48 h): 1710 nM; growth, % of control at 3 µM (MDA-MB-231 [26]): 49.7%; GI50 (NUGC-3 [27]): 830 nM; GI50 (MDA-MB-231 [28]): 1800 nM; growth, % of control at 0.3 µM (NUGC-3 [29]): 97.1%; growth, % of control at 1 µM (HCT-15 [30]): 81.8%; growth, % of control at 0.3 µM (PC-3 [31]): 83%; growth, % of control at 3 µM (ACHN [32]): 45.7%; growth, % of control at 3 µM (NUGC-3 [33]): 19.3%; growth, % of control at 0.1 µM (HCT-15 [34]): 90.5%; growth, % of control at 0.3 µM (ACHN [35]): 101%; growth, % of control at 0.1 µM (ACHN [36]): 92.6%; growth, % of control at 0.3 µM (NCI-H23 [37]): 80.4%
2 | CCCCCCCCCCCCCCS(=O)(=O)NCC(C)(C)C[N+](C)(C)CC | 106 | -11.9 | 68.2 | 91.2 | 49.9 | 19.6 | 89.3 | 52.9 | 91.6 | 2520 | 110 | 730 | 59.4 | 460 | -4 | Active | 121 | 12.9 | 28.3 | 111 | growth, % of control at 1 µM (NUGC-3 [21]): 33.8%; growth, % of control at 10 µM (ACHN [22]): 36.1%; growth, % of control at 10 µM (PC-3 [23]): -26%; growth, % of control at 10 µM (NUGC-3 [24]): -15.7%; GI50 (HCT-15 [25]): inactive; growth, % of control at 3 µM (MDA-MB-231 [26]): 32.8%; GI50 (NUGC-3 [27]): 510 nM; GI50 (MDA-MB-231 [28]): 720 nM; growth, % of control at 0.3 µM (NUGC-3 [29]): 107%; growth, % of control at 1 µM (HCT-15 [30]): 104%; growth, % of control at 0.3 µM (PC-3 [31]): 99.3%; growth, % of control at 3 µM (ACHN [32]): 60.6%; growth, % of control at 3 µM (NUGC-3 [33]): 3.9%; growth, % of control at 0.1 µM (HCT-15 [34]): 112%; growth, % of control at 0.3 µM (ACHN [35]): 97.7%; growth, % of control at 0.1 µM (ACHN [36]): 101%; growth, % of control at 0.3 µM (NCI-H23 [37]): 109%
3 | CCCCCCCCCCCCCCS(=O)(=O)N(C)CC[N+](C)(C)CC | 96.5 | 13.3 | 77.1 | 99 | 63.1 | 57.1 | 91.6 | 86.6 | 41.1 | 1300 | 96.8 | 590 | 21.7 | 340 | 16.3 | Active | 92.5 | 18.2 | 53.6 | 96.8 | growth, % of control at 1 µM (NUGC-3 [21]): 43.3%; growth, % of control at 10 µM (ACHN [22]): 25%; growth, % of control at 10 µM (PC-3 [23]): -12.3%; growth, % of control at 10 µM (NUGC-3 [24]): 10.1%; GI50 (HCT-15 [25]; HCT-15, 48 h): 1610 nM; growth, % of control at 3 µM (MDA-MB-231 [26]): 36.4%; GI50 (NUGC-3 [27]): 300 nM; GI50 (MDA-MB-231 [28]): 990 nM; growth, % of control at 0.3 µM (NUGC-3 [29]): 95.6%; growth, % of control at 1 µM (HCT-15 [30]): 76.3%; growth, % of control at 0.3 µM (PC-3 [31]): 95.3%; growth, % of control at 3 µM (ACHN [32]): 50.1%; growth, % of control at 3 µM (NUGC-3 [33]): 19%; growth, % of control at 0.1 µM (HCT-15 [34]): 98.2%; growth, % of control at 0.3 µM (ACHN [35]): 104%; growth, % of control at 0.1 µM (ACHN [36]): 105%; growth, % of control at 0.3 µM (NCI-H23 [37]): 94.6%
